Data reported in the OPERA property sets (Mansouri et al. 2018).

Conditions: for log10 BCF / log10 biotransformation half-life (days): fish

SMILES: COC(=O)c1ccccc1O
- boiling point: 223 °C
- log10 vapour pressure (mmHg): -1.46
- melting point: -8 °C

SMILES: COc1ccccc1OCCNCC(O)COc1cccc2[nH]c3ccccc3c12 (configuration not stated)
- melting point: 114 °C

SMILES: CCOC(=O)C(C#N)(CC)CC
- boiling point: 214 °C

SMILES: OCC(F)(F)C(F)(F)C(F)(F)C(F)(F)C(F)(F)C(F)(F)C(F)(F)F
- boiling point: 161 °C

SMILES: CC(C)OC(OC(C)C)OC(C)C
- boiling point: 167 °C

SMILES: BrCCCCCCCCCCBr
- ready biodegradability: not readily biodegradable

SMILES: C=Cc1ccccc1CC
- boiling point: 187 °C
- melting point: -75.5 °C
- ready biodegradability: not readily biodegradable

SMILES: COC(=O)c1ccccc1I
- boiling point: 280 °C

SMILES: C1CN2CCC1CC2
- log10 vapour pressure (mmHg): 0.282
- melting point: 158 °C

SMILES: COC(=O)c1cccc([N+](=O)[O-])c1
- melting point: 78 °C

SMILES: C/C=C/C=C/C(=O)O
- ready biodegradability: readily biodegradable

SMILES: CCNc1nc(Cl)nc(NC(C)(C)C#N)n1
- log10 Koc (L/kg): 2.28
- log10 vapour pressure (mmHg): -6.86
- melting point: 168 °C

SMILES: CC(C)(O)C(=O)c1ccc(OCCO)cc1
- melting point: 89 °C

SMILES: Cc1cccc(S)c1
- boiling point: 195 °C
- log10 vapour pressure (mmHg): -0.257
- melting point: -20 °C

SMILES: OC(CCN1CCCC1)(c1ccccc1)C1CCCCC1 (configuration not stated)
- melting point: 86 °C

SMILES: CC(=O)Oc1ccc(C)c(C)c1
- boiling point: 235 °C
- melting point: 22 °C

SMILES: Nc1ccc(S(=O)(=O)Nc2cnc3ccccc3n2)cc1
- melting point: 248 °C

SMILES: Cc1ccc(C(C)C)c(OC(=O)NCCC(C)C)c1
- melting point: 57 °C

SMILES: O=S(=O)(Cc1ccccc1)c1ccccc1
- melting point: 146 °C

SMILES: O=C(Cc1ccccc1)OC(=O)Cc1ccccc1
- melting point: 73.3 °C

SMILES: CC(=O)NCCO
- melting point: 16 °C

SMILES: C=CC(C)(C)CC
- boiling point: 77.5 °C
- log10 vapour pressure (mmHg): 2.02
- melting point: -134 °C

SMILES: Cc1ccc(I)cc1
- boiling point: 211 °C
- melting point: 36.5 °C

SMILES: CCN1CN(CC)CN(CC)C1
- boiling point: 208 °C
- melting point: 70 °C
- ready biodegradability: readily biodegradable

SMILES: N#CC1(O)CCCCC1
- melting point: 35 °C

SMILES: CCCCSC#N
- boiling point: 186 °C

SMILES: CN(C)CCc1c[nH]c2cccc(OP(=O)(O)O)c12
- melting point: 224 °C

SMILES: CCC1CCCO1 (configuration not stated)
- boiling point: 109 °C

SMILES: CCCCCC#N
- boiling point: 164 °C
- log10 Koa: 4.08
- log10 vapour pressure (mmHg): 0.455
- melting point: -80.3 °C

SMILES: COc1ccc(Nc2ccc(OC)cc2)cc1
- ready biodegradability: not readily biodegradable

SMILES: CC(C(=O)O)c1ccc(-c2ccccc2)c(F)c1 (configuration not stated)
- melting point: 110 °C

SMILES: Cc1cc(C(C#N)c2ccc(Cl)cc2)c(Cl)cc1NC(=O)c1cc(I)cc(I)c1O (configuration not stated)
- melting point: 218 °C

SMILES: CC(=O)Nc1ccc(C)c(NS(=O)(=O)C(F)(F)F)c1
- melting point: 176 °C

SMILES: C#CC(C)O (configuration not stated)
- boiling point: 106 °C
- melting point: -3 °C

SMILES: FC(F)(F)c1ccc(Cl)nc1
- boiling point: 153 °C
- melting point: 33 °C

SMILES: CCCCCCCCCCCCOC(=O)c1cc(O)c(O)c(O)c1
- melting point: 96.5 °C

SMILES: CC(Br)C(Br)C(=O)O (configuration not stated)
- melting point: 87 °C

SMILES: COP(=O)(OC)O/C(C)=C/C(=O)OC(C)c1ccccc1 (configuration not stated)
- log10 Koc (L/kg): 2
- log10 vapour pressure (mmHg): -4.85

SMILES: CCCCOC(=O)N(C)SN(C)C(=O)Oc1cccc2c1OC(C)(C)C2
- log10 vapour pressure (mmHg): -7.53

SMILES: O=S(=O)(O)c1ccccc1
- melting point: 65 °C
- ready biodegradability: readily biodegradable

SMILES: CCc1cc(CC)cc(CC)c1
- boiling point: 216 °C
- melting point: -66.5 °C

SMILES: CCOC(=O)N(C)N=O
- log10 vapour pressure (mmHg): 0.0719

SMILES: CN1CCC[C@H]1c1cccnc1
- boiling point: 247 °C
- log10 Koc (L/kg): 2.01
- log10 vapour pressure (mmHg): -1.42
- melting point: -79 °C

SMILES: Cc1cccc(-c2cccc(C)c2)c1
- boiling point: 280 °C
- melting point: 9 °C

SMILES: OC1CCCCC1
- boiling point: 161 °C
- log10 Henry constant (atm·m³/mol): -5.36
- log10 Koa: 5.18
- log10 vapour pressure (mmHg): -0.0969
- melting point: 25.4 °C
- ready biodegradability: readily biodegradable

SMILES: CCCCCCCCCCCC(=O)CCCCCCCCCCC
- melting point: 70.2 °C

SMILES: SC1=NCCCN1
- melting point: 211 °C

SMILES: CC(=O)Nc1ccc(C)cc1
- boiling point: 307 °C
- melting point: 152 °C

SMILES: CCCCCCCCC(=O)Cl
- boiling point: 215 °C
- melting point: -60.5 °C

SMILES: CCNc1cccc2ccccc12
- boiling point: 305 °C
- ready biodegradability: not readily biodegradable
- log10 BCF: 2.32
- log10 biotransformation half-life (days): 0.43

SMILES: O=C(c1ccc(Br)cc1)c1ccc(Br)cc1
- boiling point: 395 °C
- melting point: 177 °C

SMILES: COC(=O)C1(S(=O)(=O)c2ccccc2)CC1
- melting point: 74.5 °C

SMILES: CCCCC(C)(CC)CC
- boiling point: 164 °C

SMILES: CC(=O)c1ccc(C)s1
- boiling point: 232 °C
- melting point: 27.5 °C

SMILES: FC(F)(F)C(F)(F)C(F)(F)C(F)(F)C(F)(F)C(F)(F)C(F)(F)C(F)(F)C(F)(F)C(F)(F)Br
- boiling point: 198 °C

SMILES: O=C1c2ccc(O)cc2C(=O)c2cc(O)ccc21
- melting point: 354 °C

SMILES: CC(C)OC(=O)c1ccccc1
- boiling point: 216 °C

SMILES: C1=CCCC=CCCC=CCC1
- boiling point: 240 °C
- melting point: -9.25 °C
- ready biodegradability: not readily biodegradable
- log10 BCF: 3.92
- log10 biotransformation half-life (days): 1.74

SMILES: O=C(O)c1c2ccccc2cc2ccccc12
- log10 Koc (L/kg): 2.74

SMILES: CC1(C)CCc2ccccc21
- boiling point: 191 °C

SMILES: c1ccc2nnccc2c1
- melting point: 38 °C

SMILES: COC(=O)c1cccc2ccccc12
- melting point: 59.5 °C

SMILES: O=P(O)(c1ccccc1)c1ccccc1
- melting point: 194 °C

SMILES: CCC(C)CCC(C)C (configuration not stated)
- boiling point: 136 °C
- log10 biodegradation half-life (days): 0.778

SMILES: CC(C)CC(=O)c1ccccc1
- boiling point: 236 °C

SMILES: O=C1C(F)=C(F)C(=O)C(F)=C1F
- melting point: 184 °C

SMILES: Nc1c(Cl)cccc1Cl
- log10 Koc (L/kg): 3.25
- melting point: 39 °C
